This note sets out measurements from ChEMBL document CHEMBL1127083 (J Med Chem, 1993).

SMILES strings stand for the structures.

The target of assay [1] is Leukotriene B4 receptor 1 (Homo sapiens, UniProt Q15722). Kind of assay: Tested for inhibition of specific binding of [3H]LTB4 to human neutrophil expressing LTB4 receptor.
Assay [2] deals with Leukotriene B4 receptor (Homo sapiens, UniProt Q9NPC1+Q15722). The assay can be described thus: Inhibition of LTB4-induced up-regulation of human neutrophil CD11b/CD18 integrin. Format: functional.

Chain of Leukotriene B4 receptor 1 (Q15722 whole entry): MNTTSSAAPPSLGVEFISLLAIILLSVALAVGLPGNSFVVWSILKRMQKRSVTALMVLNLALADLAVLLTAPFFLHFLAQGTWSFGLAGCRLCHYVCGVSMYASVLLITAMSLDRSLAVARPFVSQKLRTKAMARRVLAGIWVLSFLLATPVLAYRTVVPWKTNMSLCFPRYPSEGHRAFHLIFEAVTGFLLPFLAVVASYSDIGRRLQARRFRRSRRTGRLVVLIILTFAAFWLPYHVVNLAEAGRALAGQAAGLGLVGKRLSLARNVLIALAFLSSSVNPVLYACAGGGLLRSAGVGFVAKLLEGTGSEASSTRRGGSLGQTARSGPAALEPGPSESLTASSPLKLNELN

Broadly, the Ki is the dissociation constant of the complex between target and ligand, obtained from inhibition or displacement. Low values mean tighter binding, high ones weaker binding. The term IC50 denotes the concentration that inhibits the measured activity by half. Lower therefore signals higher potency. Turning to `CCc1cc(-c2ccccc2)c(O)cc1OCCCOc1ccc2c(=O)c3ccccc3oc2c1CCC(=O)O`, the affinity in assay [1] corresponds to a Ki of 22 nM. The IC50 in assay [2] is listed as 5.4 nM.

Consider `CCc1cc(-c2ccc(F)cc2)c(O)cc1OCCCOc1ccc2c(=O)c3ccccc3oc2c1CCC(=O)O`, for which the Ki in assay [1] was found to be 36 nM. Further, the IC50 in assay [2] amounted to 1.8 nM.

The molecule `CCc1cc(-c2ccc(F)cc2)c(O)cc1OCCCOc1ccc2c(=O)c3cc(C(=O)O)ccc3oc2c1CCC(=O)O` yielded a Ki in assay [1] of 0.47 nM. This molecule yielded an IC50 in assay [2] of 1.2 nM.

With `CCc1cc(-c2ccccc2)c(O)cc1OCCCOc1ccc2c(=O)c3cc(C(=O)O)ccc3oc2c1CCC(=O)O`, the Ki in assay [1] worked out at 0.57 nM. Further, in assay [2], the IC50 worked out at 3.4 nM.
